The source made the active and inactive calls.
Assays:
[1] = target: T1, SUMO-activating enzyme (Homo sapiens, UniProt Q9UBT2); experiment: SUMOylation inhibitor hit validation, confirmation, SUMOylation inhibitor project, biochemical, AlphaScreen (AID 2018); format: functional
[2] = target: T1, SUMO-activating enzyme; experiment: inhibitors of in vitro SUMOylation cascade, primary screen, biochemical, HTRF, uHTS (AID 2006); format: protein-complex assay
[3] = target: T2, Tyrosine-protein phosphatase non-receptor type 12 (Homo sapiens, UniProt Q05209); experiment: SAR Selectivity Analysis of small molecule inhibitors of PEST using pCAP in a fluorescence assay. [Related pubchem assays (depositor defined):AID1779, AID1784, AID2135]; format: functional
T2 sequence (Q05209 whole entry): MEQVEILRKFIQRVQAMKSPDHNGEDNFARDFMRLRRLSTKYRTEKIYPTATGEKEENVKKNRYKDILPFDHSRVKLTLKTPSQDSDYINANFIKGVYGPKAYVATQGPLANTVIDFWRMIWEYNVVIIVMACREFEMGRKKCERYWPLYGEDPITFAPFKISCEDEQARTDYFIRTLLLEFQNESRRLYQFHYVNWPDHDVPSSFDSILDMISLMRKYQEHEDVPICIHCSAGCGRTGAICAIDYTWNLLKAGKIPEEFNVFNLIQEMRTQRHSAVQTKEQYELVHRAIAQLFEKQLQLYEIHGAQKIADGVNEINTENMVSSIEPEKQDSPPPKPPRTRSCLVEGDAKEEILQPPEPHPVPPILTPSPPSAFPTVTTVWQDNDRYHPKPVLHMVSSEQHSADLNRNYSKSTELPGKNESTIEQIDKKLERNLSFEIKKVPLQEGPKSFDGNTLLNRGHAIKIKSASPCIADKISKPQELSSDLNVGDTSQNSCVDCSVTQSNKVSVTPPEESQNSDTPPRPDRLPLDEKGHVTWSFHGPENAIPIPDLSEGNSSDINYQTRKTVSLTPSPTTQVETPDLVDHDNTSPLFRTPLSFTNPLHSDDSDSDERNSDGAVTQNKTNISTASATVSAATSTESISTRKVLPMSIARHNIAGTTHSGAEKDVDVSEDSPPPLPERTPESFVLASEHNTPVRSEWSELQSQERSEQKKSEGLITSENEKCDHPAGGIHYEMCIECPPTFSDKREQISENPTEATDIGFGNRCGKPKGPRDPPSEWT

[4] = target: T3, Tyrosine-protein phosphatase non-receptor type 22 (Homo sapiens, UniProt Q9Y2R2); experiment: SAR LYP1 Fluorescent Assay using OMFP substrate for In Vitro dose response studies - Set 3. [Related pubchem assays (depositor defined):AID1779, AID1784, AID2140, AID2686]; format: functional
T3 sequence (Q9Y2R2 whole entry): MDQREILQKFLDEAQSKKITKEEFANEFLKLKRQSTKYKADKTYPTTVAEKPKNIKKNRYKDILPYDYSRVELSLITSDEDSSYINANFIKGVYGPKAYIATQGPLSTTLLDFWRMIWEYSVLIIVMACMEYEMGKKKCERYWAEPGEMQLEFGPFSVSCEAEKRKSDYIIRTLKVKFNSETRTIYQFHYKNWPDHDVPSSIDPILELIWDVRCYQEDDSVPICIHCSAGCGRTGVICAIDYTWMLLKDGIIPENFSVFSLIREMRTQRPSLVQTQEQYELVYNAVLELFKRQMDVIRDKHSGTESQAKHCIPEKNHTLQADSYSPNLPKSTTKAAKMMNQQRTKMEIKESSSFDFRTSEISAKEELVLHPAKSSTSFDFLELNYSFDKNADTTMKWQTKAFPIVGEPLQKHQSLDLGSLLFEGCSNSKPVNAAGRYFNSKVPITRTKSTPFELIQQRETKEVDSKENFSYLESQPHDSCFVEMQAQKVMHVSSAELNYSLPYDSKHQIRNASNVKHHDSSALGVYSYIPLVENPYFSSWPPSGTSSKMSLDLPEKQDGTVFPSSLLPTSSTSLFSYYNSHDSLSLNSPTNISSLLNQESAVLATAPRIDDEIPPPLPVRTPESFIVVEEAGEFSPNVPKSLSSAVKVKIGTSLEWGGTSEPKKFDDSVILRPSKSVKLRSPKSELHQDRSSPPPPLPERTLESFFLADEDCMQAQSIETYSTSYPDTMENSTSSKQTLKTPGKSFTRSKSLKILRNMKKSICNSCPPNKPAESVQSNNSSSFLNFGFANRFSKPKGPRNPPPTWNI

[5] = target: T4, Tyrosine-protein phosphatase non-receptor type 7 (Homo sapiens, UniProt P35236); experiment: redox-dependent HePTP inhibition, mechanism study, biochemical, fluorescence (AID 2068); format: functional
T4 sequence (P35236 whole entry): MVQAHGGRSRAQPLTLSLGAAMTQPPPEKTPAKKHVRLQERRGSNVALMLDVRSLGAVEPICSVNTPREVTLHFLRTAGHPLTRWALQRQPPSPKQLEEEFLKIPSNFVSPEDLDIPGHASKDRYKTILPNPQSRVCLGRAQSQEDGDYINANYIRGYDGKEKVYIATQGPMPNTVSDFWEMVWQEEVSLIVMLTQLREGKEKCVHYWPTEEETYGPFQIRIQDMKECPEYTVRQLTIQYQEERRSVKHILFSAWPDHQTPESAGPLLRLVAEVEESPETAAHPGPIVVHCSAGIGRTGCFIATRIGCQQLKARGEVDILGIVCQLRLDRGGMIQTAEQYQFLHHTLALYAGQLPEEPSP

[6] = target: T4, Tyrosine-protein phosphatase non-receptor type 7; experiment: HePTP (PTPN7) phosphatase inhibitor potency, SAR follow-up, biochemical, set 2 (AID 449736); format: functional
[7] = target: T3, Tyrosine-protein phosphatase non-receptor type 22; experiment: LYP (PTPN22) phosphatase inhibitor potency, SAR follow-up, biochemical, pCAP fluorogenic substrate, fluorescence, set 3 (AID 449727); format: functional
[8] = target: Dual specificity protein phosphatase 3 (Homo sapiens, UniProt P51452); experiment: SAR VHR1 Fluorescent Assay for In Vitro dose response studies Set 2. [Related pubchem assays (depositor defined):AID1654, AID1661, AID1878]; format: functional
[9] = target: Dual specificity protein phosphatase 6 (Rattus norvegicus, UniProt Q64346); format: functional;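 note: confirmatory in vitro dose-response testing of MKP-3 inhibition; recombinant His-tagged MKP-3 made in E. coli BL21 with OMFP substrate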
[10] = target: T5, Carboxy-terminal domain RNA polymerase II polypeptide A small phosphatase 1 (Homo sapiens, UniProt Q9GZU7); experiment: inhibitors of CTDSP1, concentration-response testing, biochemical assay, absorbance-based, actives from ultra-high-throughput screening (AID 540297); format: functional
T5 sequence (Q9GZU7 whole entry): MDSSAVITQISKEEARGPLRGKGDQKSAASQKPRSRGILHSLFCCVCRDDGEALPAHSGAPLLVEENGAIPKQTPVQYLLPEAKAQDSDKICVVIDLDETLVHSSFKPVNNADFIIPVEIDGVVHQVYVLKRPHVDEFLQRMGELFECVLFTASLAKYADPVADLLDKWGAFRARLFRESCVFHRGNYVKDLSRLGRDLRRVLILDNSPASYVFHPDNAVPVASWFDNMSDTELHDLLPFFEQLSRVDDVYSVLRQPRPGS

[11] = target: Arf-GAP with SH3 domain, ANK repeat and PH domain-containing protein 1 (Homo sapiens, UniProt Q9ULH1); format: functional;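 note: biochemical fluorescence polarization dose–response screen measuring inhibition of ASAP1; ASAP1 GAP domain stimulating GTP hydrolysis by truncated human ARF1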
[12] = target: T6, Apoptotic protease-activating factor 1 (Homo sapiens, UniProt O14727); experiment: activation of Apaf-1 mediated apoptosis – fluorescent, uHTS hits, dose response (AID 588554); format: functional
T6 sequence (O14727 whole entry): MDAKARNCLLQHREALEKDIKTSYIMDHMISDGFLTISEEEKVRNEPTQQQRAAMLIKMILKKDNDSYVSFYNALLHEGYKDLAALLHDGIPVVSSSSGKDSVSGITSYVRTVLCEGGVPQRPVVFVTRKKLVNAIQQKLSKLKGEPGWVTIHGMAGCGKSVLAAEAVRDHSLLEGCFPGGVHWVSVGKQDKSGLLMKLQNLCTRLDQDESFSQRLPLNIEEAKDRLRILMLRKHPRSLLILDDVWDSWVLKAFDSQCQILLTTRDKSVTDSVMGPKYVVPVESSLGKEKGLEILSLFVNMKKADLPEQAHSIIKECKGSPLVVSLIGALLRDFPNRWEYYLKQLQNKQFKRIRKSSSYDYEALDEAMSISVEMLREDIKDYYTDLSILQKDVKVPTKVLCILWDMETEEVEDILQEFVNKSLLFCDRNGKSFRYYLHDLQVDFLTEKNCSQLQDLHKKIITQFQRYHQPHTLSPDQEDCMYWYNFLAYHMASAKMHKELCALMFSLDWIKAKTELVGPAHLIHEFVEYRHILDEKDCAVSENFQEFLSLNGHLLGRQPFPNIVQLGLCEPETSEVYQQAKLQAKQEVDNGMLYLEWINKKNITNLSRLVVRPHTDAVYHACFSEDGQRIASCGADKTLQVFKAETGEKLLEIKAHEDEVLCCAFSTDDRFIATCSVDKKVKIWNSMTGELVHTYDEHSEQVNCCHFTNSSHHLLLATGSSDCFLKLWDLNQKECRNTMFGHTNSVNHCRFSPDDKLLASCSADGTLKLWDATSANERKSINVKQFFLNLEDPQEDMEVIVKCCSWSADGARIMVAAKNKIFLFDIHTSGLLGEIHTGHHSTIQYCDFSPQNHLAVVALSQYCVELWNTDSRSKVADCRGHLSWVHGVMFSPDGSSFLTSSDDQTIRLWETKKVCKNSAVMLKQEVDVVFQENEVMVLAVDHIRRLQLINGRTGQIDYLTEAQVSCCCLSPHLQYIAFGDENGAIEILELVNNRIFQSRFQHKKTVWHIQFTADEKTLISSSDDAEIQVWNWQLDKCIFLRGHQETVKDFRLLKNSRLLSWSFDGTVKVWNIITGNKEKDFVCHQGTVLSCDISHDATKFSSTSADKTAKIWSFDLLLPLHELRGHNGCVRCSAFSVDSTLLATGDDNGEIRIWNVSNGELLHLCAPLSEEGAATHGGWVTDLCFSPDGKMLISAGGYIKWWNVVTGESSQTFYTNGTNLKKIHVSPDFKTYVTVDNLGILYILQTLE

[13] = target: Beta-adrenergic receptor kinase 1 (Homo sapiens, UniProt P25098); experiment: GRK2 inhibitors displacing RNA aptamer, dose response, biochemical, flow cytometry beads, FAM-aptamer, powder set 1 (AID 588720)
[14] = target: T7, Small ubiquitin-related modifier 1 (Homo sapiens, UniProt P63165); experiment: inhibitors of SUMO1 peptide binding, dose response, biochemical, fluorescence polarization, uHTS hits (AID 624382); format: functional; conditions: read-out: IC50_Mean
[15] = target: T7, Small ubiquitin-related modifier 1; experiment: inhibitors of SUMO1 partner interactions, dose response, biochemical, FRET (AID 624383); format: functional; conditions: read-out: IC50_Mean
[16] = test system: Jurkat; experiment: SAR Analysis of small molecule inhibitors of […] specific antigen receptor-induced NF-kB activation in a Jurkat cell line using a luminescence assay - Set 3. [Related pubchem assays (depositor defined):AID435022, AID435025, AID465]; format: functional, cell-based; conditions: Homo sapiens
[17] = test system: HEK293; experiment: SAR Analysis of small molecule inhibitors of B-cell specific antigen receptor-induced NF-kB activation in a HEK-293T cell line using a luminescence assay - Set 2. [Related pubchem assays (depositor defined):AID435022, AID435025, AID489021]; format: functional, cell-based; conditions: Homo sapiens
[18] = test system: HEK293; experiment: cytotoxicity in HEK293T NF-kB-Luc cells, SAR follow-up, cytotoxicity control for NF-kB activator project, cell-based, resazurin fluorescence (AID 493251); format: functional; conditions: Homo sapiens

T1 sequence (Q9UBE0 whole entry): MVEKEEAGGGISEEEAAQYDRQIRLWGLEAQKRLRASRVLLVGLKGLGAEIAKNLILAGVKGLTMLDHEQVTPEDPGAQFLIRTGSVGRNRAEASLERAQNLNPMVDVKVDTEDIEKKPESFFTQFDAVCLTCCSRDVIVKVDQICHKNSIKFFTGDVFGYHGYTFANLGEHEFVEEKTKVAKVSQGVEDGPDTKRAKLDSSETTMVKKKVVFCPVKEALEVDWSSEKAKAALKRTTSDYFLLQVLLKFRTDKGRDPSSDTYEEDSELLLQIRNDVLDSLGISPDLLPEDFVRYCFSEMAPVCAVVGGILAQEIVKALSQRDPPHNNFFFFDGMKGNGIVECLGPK
T1 sequence (Q9UBT2 whole entry): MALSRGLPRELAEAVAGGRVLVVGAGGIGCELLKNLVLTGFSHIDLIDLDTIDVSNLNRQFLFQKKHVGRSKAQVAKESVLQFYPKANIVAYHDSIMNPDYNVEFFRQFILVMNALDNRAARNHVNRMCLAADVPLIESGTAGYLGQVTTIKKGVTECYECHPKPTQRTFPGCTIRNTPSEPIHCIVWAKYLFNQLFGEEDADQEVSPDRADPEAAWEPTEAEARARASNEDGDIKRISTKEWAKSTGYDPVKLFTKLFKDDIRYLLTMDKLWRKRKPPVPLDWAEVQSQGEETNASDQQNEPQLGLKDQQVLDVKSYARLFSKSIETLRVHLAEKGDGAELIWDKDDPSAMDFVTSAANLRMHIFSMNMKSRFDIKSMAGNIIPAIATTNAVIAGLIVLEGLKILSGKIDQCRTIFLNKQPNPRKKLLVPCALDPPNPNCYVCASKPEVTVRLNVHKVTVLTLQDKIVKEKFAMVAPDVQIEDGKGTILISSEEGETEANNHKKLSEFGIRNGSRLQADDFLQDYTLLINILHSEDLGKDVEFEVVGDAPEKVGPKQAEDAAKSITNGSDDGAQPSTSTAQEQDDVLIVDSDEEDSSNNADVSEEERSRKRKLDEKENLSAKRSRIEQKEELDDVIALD
T7 sequence (P63165 whole entry): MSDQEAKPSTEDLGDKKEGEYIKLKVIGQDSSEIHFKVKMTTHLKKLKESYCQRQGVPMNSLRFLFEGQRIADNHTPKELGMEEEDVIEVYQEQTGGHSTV
Chain of Dual specificity protein phosphatase 6 (Q64346 whole entry, the tested form may be a part): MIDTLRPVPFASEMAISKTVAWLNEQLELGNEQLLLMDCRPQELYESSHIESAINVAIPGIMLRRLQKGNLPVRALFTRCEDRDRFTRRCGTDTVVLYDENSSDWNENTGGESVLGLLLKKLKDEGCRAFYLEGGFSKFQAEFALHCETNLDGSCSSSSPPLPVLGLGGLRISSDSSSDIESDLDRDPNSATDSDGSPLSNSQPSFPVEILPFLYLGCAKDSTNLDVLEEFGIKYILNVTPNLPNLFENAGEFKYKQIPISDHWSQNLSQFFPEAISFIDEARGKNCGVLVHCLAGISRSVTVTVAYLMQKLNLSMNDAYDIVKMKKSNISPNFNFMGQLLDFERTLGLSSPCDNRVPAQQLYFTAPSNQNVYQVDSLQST
Chain of Arf-GAP with SH3 domain, ANK repeat and PH domain-containing protein 1 (Q9ULH1 whole entry, the tested form may be a part): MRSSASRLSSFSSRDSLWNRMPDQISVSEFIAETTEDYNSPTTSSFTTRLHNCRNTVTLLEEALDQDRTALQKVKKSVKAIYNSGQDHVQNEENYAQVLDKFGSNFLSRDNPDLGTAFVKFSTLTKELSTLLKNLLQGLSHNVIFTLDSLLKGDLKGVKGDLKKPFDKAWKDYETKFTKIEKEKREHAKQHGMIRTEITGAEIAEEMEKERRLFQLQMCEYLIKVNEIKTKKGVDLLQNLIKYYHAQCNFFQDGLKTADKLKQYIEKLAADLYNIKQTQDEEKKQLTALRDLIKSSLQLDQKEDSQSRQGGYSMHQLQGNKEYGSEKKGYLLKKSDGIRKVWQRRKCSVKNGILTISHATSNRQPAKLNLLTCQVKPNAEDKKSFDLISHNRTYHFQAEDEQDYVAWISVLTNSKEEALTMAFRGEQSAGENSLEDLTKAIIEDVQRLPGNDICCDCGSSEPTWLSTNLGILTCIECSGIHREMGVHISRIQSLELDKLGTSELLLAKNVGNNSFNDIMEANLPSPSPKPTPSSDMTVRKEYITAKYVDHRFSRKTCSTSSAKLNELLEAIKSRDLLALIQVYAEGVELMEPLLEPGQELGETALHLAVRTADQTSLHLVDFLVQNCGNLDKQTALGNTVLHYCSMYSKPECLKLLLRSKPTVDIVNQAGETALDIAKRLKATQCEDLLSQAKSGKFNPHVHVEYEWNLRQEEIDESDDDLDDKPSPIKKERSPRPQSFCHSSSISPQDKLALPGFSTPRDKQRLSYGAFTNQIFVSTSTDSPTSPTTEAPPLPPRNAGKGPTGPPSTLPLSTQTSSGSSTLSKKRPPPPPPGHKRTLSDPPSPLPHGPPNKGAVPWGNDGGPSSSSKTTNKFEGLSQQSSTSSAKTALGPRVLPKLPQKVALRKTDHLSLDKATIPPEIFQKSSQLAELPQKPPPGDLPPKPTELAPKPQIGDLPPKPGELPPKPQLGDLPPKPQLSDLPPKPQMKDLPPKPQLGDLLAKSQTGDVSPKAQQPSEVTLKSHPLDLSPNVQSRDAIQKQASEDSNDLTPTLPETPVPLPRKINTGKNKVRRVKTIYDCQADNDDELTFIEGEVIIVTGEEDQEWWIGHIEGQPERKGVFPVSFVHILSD
Chain of Beta-adrenergic receptor kinase 1 (P25098 whole entry): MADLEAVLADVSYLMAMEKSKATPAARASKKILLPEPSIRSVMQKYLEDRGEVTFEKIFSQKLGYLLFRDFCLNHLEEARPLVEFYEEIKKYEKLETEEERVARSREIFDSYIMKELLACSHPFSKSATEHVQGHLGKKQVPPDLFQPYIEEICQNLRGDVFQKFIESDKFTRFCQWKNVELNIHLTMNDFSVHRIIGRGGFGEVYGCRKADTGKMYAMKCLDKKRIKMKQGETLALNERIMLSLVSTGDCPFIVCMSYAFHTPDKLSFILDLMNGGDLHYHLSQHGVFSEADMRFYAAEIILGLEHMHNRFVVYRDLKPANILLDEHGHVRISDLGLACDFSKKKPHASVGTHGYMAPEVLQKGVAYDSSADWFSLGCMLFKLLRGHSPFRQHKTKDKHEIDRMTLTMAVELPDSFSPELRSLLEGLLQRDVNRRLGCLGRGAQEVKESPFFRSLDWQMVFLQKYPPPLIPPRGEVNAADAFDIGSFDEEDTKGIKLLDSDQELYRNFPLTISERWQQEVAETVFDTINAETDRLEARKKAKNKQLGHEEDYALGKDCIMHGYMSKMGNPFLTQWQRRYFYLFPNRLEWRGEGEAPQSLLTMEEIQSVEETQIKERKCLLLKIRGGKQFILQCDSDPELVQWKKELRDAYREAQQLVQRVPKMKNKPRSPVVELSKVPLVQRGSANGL
Chain of Dual specificity protein phosphatase 3 (P51452 whole entry): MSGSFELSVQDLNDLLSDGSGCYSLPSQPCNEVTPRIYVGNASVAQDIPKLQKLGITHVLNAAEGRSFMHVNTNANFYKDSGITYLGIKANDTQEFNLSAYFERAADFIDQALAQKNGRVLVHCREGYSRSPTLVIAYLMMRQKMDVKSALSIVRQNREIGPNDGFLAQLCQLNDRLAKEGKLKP

Row | Structure (SMILES) | IC50 [1] | IC50 [2] | IC50 [3] | IC50 [4] | IC50 [5] | IC50 [6] | IC50 [7] | IC50 [8] | IC50 [9] | IC50 [10] | IC50 [11] | EC50 [12] | EC50 [13] | IC50 [14] | IC50 [15] | IC50 [16] | IC50 [17] | IC50 [18]
1 | Cc1ccc(NC(=O)CN2C(=O)S/C(=C\c3cc(Cl)c(OCC(=O)O)c(Cl)c3)C2=O)cc1 | 8.11 µM (active) | 13.5 µM (active) | 2.79 µM (active) | 3.95 µM (active) | 0.819 µM (active) | 0.596 µM (active) | 4.09 µM (active) | 3.55 µM (active) | 17.8 µM (active) | 2.5 µM (active) | 6.61 µM (active) | – | – | – | – | – | – | –
2 | CCOc1ccccc1NC(=O)CCS(=O)(=O)c1ccc(Br)cc1 | – | – | – | – | – | – | – | – | – | 4.09 µM (active) | – | 11.6 µM (active) | 0.337 µM (active) | > 66.6 µM (inactive) | 6.76 µM (active) | – | – | –
3 | CCOc1ccc(-c2noc(CCC(=O)NC)n2)cc1 | – | – | – | – | – | – | – | – | – | – | – | – | – | – | – | > 80 µM (inactive) | > 80 µM (inactive) | > 80 µM (inactive)

From ChEMBL document CHEMBL1201862, “PubChem BioAssay data set” (2004)
